What all share (assay): growth of human tumour cells (NCI), 48 h
For experiment [1], the system named is BT-549 breast.
The subject of experiment [2] is HOP-92 NSCLC.
The subject of experiment [3] is MALME-3M melanoma.
The subject of experiment [4] is NCI/ADR-RES ovarian.
Experiment [5] deals with SN12C renal.
The test system of experiment [6] is SR leukemia.
In experiment [7] the test system is SW-620 colon.
In experiment [8] the test system is U251 CNS.
Experiment [9] deals with UACC-62 melanoma.
Experiment [10] relates to UO-31 renal.

Molecules are shown by their SMILES. “And” between values parts separate entries of the source, which are not always exact repeats. Equal entries are not always repeated.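 All cell lines were grown in 96-well plates and treated with compound for 48 hours. At the GI50, growth is halved. TGI: concentration producing complete growth inhibition.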

For the compound `O=C(/C=C/c1cccnc1)c1ccccc1O`, the GI50 was 14200 nM in experiment [1]; 10400 nM in [2]; 22200 nM in experiment [3]; 24600 nM in [4]; 24400 nM in [5]; 12300 nM in experiment [6]. The GI50 in [7] is 22500 nM; in experiment [8] it was 22200 nM; in experiment [9], 16200 nM; in [10], 13400 nM. In addition, the TGI in [1] was 28500 nM; in experiment [2], 32500 nM; in experiment [3] it was 62900 nM; in experiment [4], more than 100000 nM; in experiment [5], 81900 nM; in [6], 64600 nM. For the same compound, the TGI in experiment [7] came out at 63200 nM; in experiment [8], 81100 nM; in experiment [9], 35300 nM; in experiment [10], 28900 nM.

For the compound `S=C(N/N=C(/c1ccccc1)c1ccccn1)Nc1cccc(Cl)c1`, the TGI in experiment [1] was 6220 nM; in [2], 13000 nM; in experiment [3], 2220 nM and 5370 nM; in experiment [4], 4380 nM; in experiment [5], 6070 nM; in [7], 2880 nM and 5770 nM. The TGI was 2910 nM and 4580 nM in [8]; 793 nM and 2660 nM in experiment [9]; 3340 nM and 4990 nM in experiment [10]. Besides, the GI50 in experiment [2] was 1650 nM; in [3] it was 16.9 nM; in experiment [4], 61.9 nM; in experiment [6], 4.13 nM; in experiment [7], 44.4 nM; in [8], 51.3 nM. In addition, the GI50 in [10] was 1510 nM.

With `Cc1ccccc1/C=C1\CN(C(=O)OC(C)(C)C)C/C(=C\c2ccccc2C)C1=O`, the GI50 in experiment [1] was 2300 nM; in [2], 1900 nM; in experiment [3], 1810 nM; in experiment [4], 3490 nM; in [5], 2700 nM; in [6], 1890 nM. Further, the GI50 in [7] is 2990 nM; in experiment [8], 1820 nM; in experiment [9], 2000 nM; in experiment [10], 1630 nM. Further, the TGI in experiment [1] was 6610 nM; in experiment [2] it was 5750 nM; in experiment [3], 3600 nM; in [4], 65100 nM; in [5] it was 6430 nM; in experiment [6] it was more than 100000 nM. For the same compound, the TGI in experiment [7] came out at 7070 nM; in [8], 3950 nM; in experiment [9], 4420 nM; in experiment [10], 3090 nM.

As for `N=c1ccn2c(n1)O[C@@H]1[C@@H](O)[C@H](CO)O[C@@H]12`, the GI50 is 41300 nM in [1]; 9940 nM in [2]; 2570 nM in experiment [3]; 2080 nM in experiment [4]; 2860 nM in experiment [5]; 962 nM in experiment [6]. Further, the GI50 in experiment [7] is 4590 nM; in [8] it was 6890 nM; in experiment [9] it was 4930 nM; in [10] it was 1310 nM. In addition, the TGI was more than 100000 nM in experiment [1]; more than 100000 nM in experiment [2]; more than 100000 nM in experiment [3]; more than 100000 nM in experiment [4]; more than 100000 nM in [5]; 21000 nM in [6]. Besides, the TGI in [7] is more than 100000 nM; in experiment [8] it was more than 100000 nM; in experiment [9], more than 100000 nM; in experiment [10], 20800 nM.

As for `O=C(CCl)Nc1ccc2c(c1)C(=O)c1ccc(NC(=O)CCl)cc1C2=O`, the GI50 was 220 nM in experiment [1]; 1130 nM in experiment [2]; 219 nM in experiment [3]; 352 nM in experiment [4]; 350 nM in experiment [5]; 95.9 nM in experiment [6]. Further, the GI50 was 198 nM in [7], 299 nM in [9] and 449 nM in [10]. Moreover, the TGI in experiment [1] was 857 nM; in [2] it was 2610 nM; in experiment [3], 888 nM; in [4] it was 1780 nM; in experiment [5], 1760 nM; in [6], 1980 nM. For the same compound, the TGI in experiment [7] worked out at 493 nM; in [9] it was 990 nM; in experiment [10], 1880 nM.

With `O=C1c2cccnc2C(=O)c2c1c(C(=O)OCCN1CCOCC1)c1ccccn21`, the GI50 is 50 nM in [1]; 26.2 nM in experiment [2]; 35.3 nM in [3]; less than 10 nM in experiment [4]; less than 10 nM in experiment [5]; less than 10 nM in [6]. The GI50 in experiment [7] is less than 10 nM; in [8], less than 10.4 nM; in experiment [9], less than 10 nM; in experiment [10], less than 10 nM. Further, the TGI in experiment [1] worked out at 2620 nM; in [2], 319 nM; in [3] it was 985 nM; in experiment [4], 13000 nM; in experiment [5] it was 1780 nM; in experiment [6], 1830 nM. The TGI in experiment [7] came out at 3230 nM; in experiment [8] it was 767 nM; in [9], 110 nM.

On to `CCN1CCN(C(=O)[C@]23CCC(C)(C)C[C@@H]2C2=CC[C@@H]4[C@@]5(C)C/C(=C/c6cccnc6)C(=O)C(C)(C)[C@@H]5CC[C@@]4(C)[C@]2(C)CC3)CC1`, for which the GI50 in experiment [1] was 1470 nM; in experiment [2], 1060 nM; in [3] it was 1530 nM; in [4] it was 1570 nM; in experiment [5] it was 1220 nM; in experiment [6] it was 706 nM. Also, the GI50 is 1780 nM in experiment [7], 1580 nM in experiment [8], 1280 nM in [9] and 1350 nM in [10]. Also, the TGI in experiment [1] came to 2880 nM; in [2], 3260 nM; in [3], 2910 nM; in [4] it was 3460 nM; in experiment [5], 2540 nM; in experiment [6], 5100 nM. For the same compound, the TGI is 3880 nM in [7], 3110 nM in experiment [8], 2830 nM in experiment [9] and 2670 nM in [10].
